Patent US11478558B2, “Prostate-specific membrane antigen targeted high-affinity agents for endoradiotherapy of prostate cancer” (The Johns Hopkins University, priority 2017, dated 2022)
pKi: −log10 of the molar value. Like-named read-outs stand apart in the source and are kept apart here.

Tests used:
PSMA(+) PC3 PIP cells = assay: Cell uptake, cell surface binding and internalization in PSMA(+) PC3 PIP cells; assay type: cell-based, human
PSMA = PSMA (Homo sapiens (Human), UniProt Q04609); assay: PSMA binding affinity; conditions: Table 6, given as range
Sequence of PSMA (Q04609 whole entry): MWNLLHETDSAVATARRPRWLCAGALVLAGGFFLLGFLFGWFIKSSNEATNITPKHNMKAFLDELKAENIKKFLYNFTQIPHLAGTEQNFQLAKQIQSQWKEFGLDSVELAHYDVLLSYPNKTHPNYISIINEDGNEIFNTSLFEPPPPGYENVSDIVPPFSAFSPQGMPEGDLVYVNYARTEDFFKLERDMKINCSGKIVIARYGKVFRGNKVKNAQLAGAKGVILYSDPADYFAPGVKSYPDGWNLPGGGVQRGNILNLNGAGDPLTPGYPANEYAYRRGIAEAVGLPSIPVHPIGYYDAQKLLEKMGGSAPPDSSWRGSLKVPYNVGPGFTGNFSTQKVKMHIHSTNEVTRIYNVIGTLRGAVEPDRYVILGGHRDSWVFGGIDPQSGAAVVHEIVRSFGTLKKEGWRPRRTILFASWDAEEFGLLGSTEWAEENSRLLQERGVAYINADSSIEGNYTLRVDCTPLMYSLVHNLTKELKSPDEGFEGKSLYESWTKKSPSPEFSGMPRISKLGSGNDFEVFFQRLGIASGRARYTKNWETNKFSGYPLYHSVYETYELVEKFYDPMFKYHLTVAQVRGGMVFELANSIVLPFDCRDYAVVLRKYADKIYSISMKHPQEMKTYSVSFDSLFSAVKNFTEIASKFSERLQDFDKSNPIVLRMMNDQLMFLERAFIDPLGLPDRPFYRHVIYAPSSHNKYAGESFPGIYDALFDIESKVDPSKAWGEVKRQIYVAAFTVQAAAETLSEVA

Row | SMILES | Specific Cell Surface Binding (PSMA(+) PC3 PIP cells) | specific internalization (PSMA(+) PC3 PIP cells) | further results
1 | O=C(O)CC[C@H](NC(=O)N[C@@H](CCCCN(Cc1ccc(Br)cc1)C(=O)CCCCNC(=O)CN1CCN(CC(=O)O)CCN(CC(=O)O)CCN(CC(=O)O)CC1)C(=O)O)C(=O)O [Ligand L1, (14S,18S)-9-(4-Bromobenzyl)-2,8,16-trioxo-1-(4,7,10-tris(carboxymethyl)-1,4,7,10-tetraazacyclododecan-1-yl)-3,9,15,17-tetraazaicosane-14,18,20-tricarboxylic acid] | 36.49 ± 0.50 % IA/10^6 cells | 23.68 ± 0.16 % IA/10^6 cells | 
2 | O=C(O)CC[C@H](NC(=O)N[C@@H](CCCCN(Cc1ccc(I)cc1)C(=O)CCCCCNC(=O)c1ccc(CNC(=O)CN2CCN(CC(=O)O)CCN(CC(=O)O)CCN(CC(=O)O)CC2)cc1)C(=O)O)C(=O)O [Ligand L4, (14S,18S)-9-(4-Iodobenzyl)-1,8,16-trioxo-1-(4-((2-(4,7,10-tris(carboxymethyl)-1,4,7,10-tetraazacyclododecan-1-yl)acetamido)methyl)phenyl)-2,9,15,17-tetraazaicosane-14,18,20-tricarboxylic acid] |  |  | pKi (PSMA): 9.41 to 9.85
3 | O=C(O)CC[C@H](NC(=O)N[C@@H](CCCCNC(=O)CCCCCCC(=O)NCCCC[C@H](NC(=O)[C@@H](CCCCNC(=O)CCCc1ccc(I)cc1)NC(=O)CN1CCN(CC(=O)O)CCN(CC(=O)O)CCN(CC(=O)O)CC1)C(=O)O)C(=O)O)C(=O)O [Ligand L14, (3S,7S,26S,29R)-38-(4-iodophenyl)-5,13,20,28,35-pentaoxo-29-(2-(4,7,10-tris(carboxymethyl)-1,4,7,10-tetraazacyclododecan-1-yl)acetamido)-4,6,12,21,27,34-hexaazaoctatriacontane-1,3,7,26-tetracarboxylic acid] | 53.0 ± 1.3 % IA/10^6 cells |  | 
4 | O=C(O)CC[C@H](NC(=O)N[C@@H](CCCCNC(=O)CCCCCCC(=O)NCCCC[C@@H](NC(=O)[C@@H](Cc1ccccc1)NC(=O)[C@@H](Cc1ccc(O)c(I)c1)NC(=O)CCC(C(=O)O)N1CCN(CC(=O)O)CCN(CC(=O)O)CCN(CC(=O)O)CC1)C(=O)O)C(=O)O)C(=O)O (some centres unmarked) [PSMA I&T, reference compound] |  |  | Specific Cell Surface Binding (PSMA(+) PC3 PIP cells; Table 6): 64.5 ± 2.3 % IA/10^6 cells; specific internalization (PSMA(+) PC3 PIP cells; Table 6): 21.1 ± 0.7 % IA/10^6 cells
5 | O=C(O)CC[C@H](NC(=O)N[C@@H](CCCCNC(=O)[C@H](Cc1ccc2ccccc2c1)NC(=O)[C@H]1CC[C@H](CNC(=O)CN2CCN(CC(=O)O)CCN(CC(=O)O)CCN(CC(=O)O)CC2)CC1)C(=O)O)C(=O)O [PSMA-617, reference compound] | 44.6 ± 1.0 % IA/10^6 cells | 21.1 ± 0.9 % IA/10^6 cells | 
